Results reported in patent publication US6344219B1, “Chinese drug composition for treatment of peptic ulcer and preparation thereof” (priority 1995, dated 2002).

What was measured:
pyloric ligation ulcer = test: Effect to the ulcer of pyloric ligation (Shay's method); format: in vivo, Rats(SD); conditions: rats; dose 200
Experimental: The experiment is conducted following Shay's method. Fifty rats, 190+20 g, male and female half and half, were randomly divided into five groups according to weight and sex and were administered as 1-1 for three days. Food was abstained but water was freely fed before 48 hr of the operation. After 2 hr of the last administration, operation of pyloric ligation was conducted then both food and water were abstained. After 48 hr the rats were executed and their gastric juice was collected for measuring the volume, and determining the free acid, total acid and pepsin following Metle's method.

[1] = system: ulcer induced by Histamine; test: Ulcer of mice induced by Histamine; format: in vivo, Mice(ICR); conditions: 200 mg/kg bid × 2 ig, Histamine 80 mg/kg ip
Experimental: Forty mice, male 23±2 g, were divided into five groups, and were administrated once both in the morning and afternoon of everyday by ig. Mice were abstained to feed food for 24 hr except water, then administered Histamine 80 mg/kg, ip, after abstaining food for 8 hr were executed. Take out the stomachs and examine ulcer index using the same method as 1-1.

[2] = system: chronic gastric ulcer caused by acetic acid burn; test: Chronic gastric ulcer of rats caused by acetic acid burn (adapted Takagi's method); format: in vivo, Rats(SD); conditions: 200 mg/kg × 12 day ig qd
Experimental: The experiment was conducted using adapted Takagi's method. Fifty rats, 165+15 g, male and female half and half, after abstaining food without abstaining water for 24 hr, were primary anesthetized with ether and their skin were sterilized as regular method. After abdominal section the stomach was gently pulled out. A small glass tube with 0.5 cm inner diameter and 3 cm length was inserted into the stomach near the lesser curvature stomach gland of pylorus using middle finger to resist against the opposite stomach wall. 0.1 ml acetic acid was injected into stomach through the glass tube. After 30 sec counting with stopwatch, acetic acid was sucked out and the stomach was rinsed with sterilized normal saline for three times. Remove out the glass tube and absorb the normal saline on its external surface with sterilized filter paper the stomach was put into the abdomen then sew up the wound and sterilize. The rats was randomly divided into 5 groups according to sex and weight on the second day of operation. The rats were administered with drug ig qd×12 day, after abstaining food overnight then were executed by decapitation. The ulcer volumes were measured using the method of injection ink with a micro syringe.

[3] = system: gastric ulcer induced by Reserpine; test: Gastric ulcer of rats induced by Reserpine; format: in vivo, Rats(SD); conditions: 200.0 mg/kg ig once daily for three days, Reserpine 5 mg/kg sc
Experimental: Fifty rats, 180±18 g, male and female half and half, were divided into five groups and were treated with drug ig once daily for three days. After abstaining food for 24 hr Reserpine 5 mg/kg was injected subcutaneously. The rats were executed by decapitation after 18 hr and the gastric ulcer was examined as the same method of 1-1.

[4] = system: stress ulcer of rats induced by water soaking; test: Effect to stress ulcer (Takagi's method, water soaking); format: in vivo, Rats(SD); conditions: 100 mg/kg qd × 2
Experimental: The model was established following Takagi's method. Takagi, et al., The Effects of Drugs on the production and Recovery Processes of the Stress Ulcer, 18:9-18 (1968); and Takagi et al., A New Method For The Production of Chronic Gastric Ulcer in Rats and The Effect of Several Drugs on its Healing, Japan J. Pharmacol Japan J. Pharmacol 19:418-426 (1969). Fifty rats, 159+13 g, male and female half and half, were randomly divided into five groups according to sex and weight and were administered with drugs daily twice, once both in the morning and afternoon for two days. From the beginning of the experiments, food was abstained but water was freely fed. One hour after the last administration, rats were bound on a board and were soaked in a thermostatic flowing water bath at […] for 18 hr then were executed by decapitation. Take out the stomach by abdominal section and ligate the pylorus first then inject 10 ml of 1% formaldehyde solution through cardia of stomach and ligate the cardia. After formalizing the stomach in 1% formaldehyde solution for 10 min, the stomach was cut along the greater curvature with scissor, rinse with normal saline solution for three times and absorb with filter paper, then flatten it on a glass plate and examine the degree of mucosa ulcer and count the number using magnifier. […]

CNC(=C[N+](=O)[O-])NCCSCc1ccc(CN(C)C)o1.Cl [Ranitidine, Ranitidine hydrochloride]
ulcer index (pyloric ligation ulcer): 1.22 ± 1.44
rate of inhibition (%) [1]: 87.8%
ulcer index (x ± SD) [1]: 1.4 ± 3.5
rate of inhibition (%) [2]: 50.7%
ulcer volume (μl, × ± SD) [2]: 1.72 ± 1.46 µL
rate of inhibition (%) [3]: 78.2%
ulcer index (x ± SD) [3]: 7.6 ± 2.0
rate of inhibition (%) [4]: 41.5%
ulcer index (x ± SD) [4]: 2.14 ± 0.46
